Laboratory results published in US9562044B2, “2-acylaminothiazole derivative or salt thereof” (ASTELLAS PHARMA INC., priority 2013, dated 2017).
Structures can show the parent of a compound that is named as a salt.

What follows are molecules tested on intravesical pressure in anesthetized rats (assay: Pelvic nerve electrical stimulation-induced elevation of intravesical pressure in anesthetized rats). Details: 3 mg/kg intravenous; maximum effect during 1 hour after administration; pre-treatment AUC = 100%; SD female rats.
Assay type: in vivo, rat
Description: Effect on Pelvic Nerve Electrical Stimulation-Induced Elevation of Intravesical Pressure in Anesthetized Rats
As an effect on the nerve stimulation-dependent bladder contraction in vivo, the effect of the Example compound of the present invention in the pelvic nerve electrical stimulation-induced elevation of the intravesical pressure in rats was measured by the following method. That is, using SD female rats (Japan SLC, Inc.), the lower abdomen was incised in the midline under anesthesia with pentobarbital (50 mg/kg ip). The ureter on both sides was ligated and cut, and then a cannula for measuring the intravesical pressure (PE-50) was inserted into the bladder from the external urethral orifice and fixed by a clip. About 200 μL of physiological saline was injected through the cannula inserted into the bladder, the other side was then connected to a pressure transducer, and the intravesical pressure was measured. Under observation using a stereomicroscope, the pelvic nerve near the bladder was isolated and an electrode (Unique Medical) for nerve stimulation was placed. The abdominal cavity was filled with mineral oil (MP BIOMEDICALS). […] After the elevation of the intravesical pressure by electrical stimulation was stabilized three times or more, the test substance (dose of 3 mg/kg) was administered at a volume of 1 mL/kg from a catheter placed in the vein and the effect of the test substance on the elevation of the intravesical pressure was measured for 1 hour. […]
The responses were put into a personal computer through PowerLab (registered trademark) (AD Instruments), and analyzed with LabChart (registered trademark). The AUC of each elevation of the intravesical pressure was calculated. The average value of three values before the treatment with the test substance was set to 100%, and the elevation rate of the intravesical pressure (% of pre) after the treatment with the test substance was calculated. […]

Structure (SMILES)	Elevation rate of intravesical pressure (% of pre)
C[C@@H]1CCCN1Cc1sc(NC(=O)c2cnc(N3CCC(C(=O)O)CC3)cn2)nc1-c1cc(Cl)cs1 [Example 4, 1-(5-{[4-(4-chloro-2-thienyl)-5-{[(2R)-2-methylpyrrolidin-1-yl]methyl}-1,3-thiazol-2-yl]carbamoyl}pyrazin-2-yl)piperidine-4-carboxylic acid dihydrochloride]	184 % of pre
CC[C@@H]1CCCN1Cc1sc(NC(=O)c2cnc(N3CCC(C(=O)O)CC3)cn2)nc1-c1cc(F)cc(C(F)(F)F)c1 [Example 115]	131 % of pre
CC[C@@H]1CCCN1Cc1sc(NC(=O)c2cnc(N3CCC(C(=O)O)CC3)cn2)nc1-c1ccc(OC)c(C(F)(F)F)c1 [Example 156]	130 % of pre
